Experimental data taken from PubChem BioAssay AID1963437 (Molecular Pharmacology Branch, DTP, NCI, 2024).

Test system: OVCAR-8 complex spheroid, growth inhibition
Assay: Anticancer human tumor OVCAR-8 cell line growth inhibition [Asc];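 also: spheroids exposed to agents for 7 days before readout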;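 as to viability, T/C: percent viability relative to DMSO vehicle wells taken as 100%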
Conditions: for IC50: curve of first compound; for viability, T/C: stronger effect = lower value
Experimental: Multicellular complex tumor spheroid response to apoptosis pathway targeting inhibitors Alrizomadlin, Pelcitoclax, and Dasminapant in combination with a variety of drugs and investigational agents in selected tumor cell lines
The MDM2 inhibitor alrizomadlin, the Bcl-2/Bcl-xL inhibitor pelcitoclax, and the IAPs inhibitor dasminapant were evaluated both individually and in combination with standard of care and investigational anticancer small molecules within a complex spheroid model of solid tumors. . Complex spheroids include a stromal component modeled by human endothelial cells (HUVEC) and fibroblasts modeled by human mesenchymal stem cells (MSCs). The concentration ranges selected for each drug and investigational agent were based upon clinically achievable concentrations if the clinical Cmax of the agent was known.
Compounds. The drugs and investigational agents: alrizomadlin (APG-115; NSC831270), pelcitoclax (APG-1252; NSC835773), dasminapant (APG-1387;NSC834197), TAK-243 (NSC785004), copanlisib (NSC809693), olaparib (NSC753686), talazoparib (NSC767125), cobimetinib (NSC 768068), eltanexor (KPT-8602, NSC 794443), abemaciclib (NSC 768073), sotorasib (NSC818433), adagrasib (NSC 831453), MRTX-1133 (NSC 836407), Iadademestat (ORY1001, NSC 806812), and RMC-4630 (NSC839698), were obtained from the NCI Developmental Therapeutics Program Chemical Repository. The FDA-approved anticancer drug set is available from the Developmental Therapeutics Program at https://dtp.cancer.gov/organization/dscb/obtaining/available plates.htm. […] The stock solutions were prepared in dimethyl sulfoxide (DMSO, Sigma-Aldrich, St. Louis, MO, cat. D2650) at 800-fold the tested concentration and stored at -70 degrees C prior to their use. All drugs and investigational agents were tested over a range starting from a high concentration at or near the clinical Cmax and decreasing in half-log increments. If the clinical Cmax for an agent had not been determined, the highest concentration tested was 10 microM.
The patient-derived cancer (PDC) cell lines include five colon adenocarcinomas: 186277-243-T-J2-PDC, 616215-338-R-J1-PDC, 439559-082-T-J2-PDC, 463943-066-T-J2-PDC, and 519858-162-T-J1-PDC; three pancreatic carcinomas: 323965-272-R-J2-PDC, 521955-158-R6-J3-PDC, and 521955-158-R2-J5-PDC; two uterine sarcomas: 327498-152-R-J2-PDC and 993429-296-R-J1-PDC; two rhabdomyosarcomas: 755483-174-R-J1-PDC and 772245-204-R-J1-PDC; two soft tissue sarcomas: 126254-015-R-J1-PDC and 494315-158-R-J1-PDC; two malignant fibrous histiocytomas: 317291-083-R-J1-PDC and 596521-263-R-J1-PDC; two breast carcinomas: 171881-019-R-J1-PDC and 885512-296-R-J2-PDC; and one ovarian carcinoma: 6556581-035-R-J-PDC were obtained from the NCI PDMR, (https://pdmr.cancer.gov). The established cell lines HSSY-2 synovial sarcoma (RRID:CVCL 8719), SYO-1 synovial sarcoma (RRID:CVCL_7146), MPNST malignant peripheral neural sheath tumor were obtained from the Sloan Kettering Institute. The following established cell lines were purchased from the American Type Culture Collection (ATCC, Manassas, VA), Sor the received from the NCI repository:, PANC-1 pancreatic carcinoma (CRL-1469, RRID:CVCL_0480), OVCAR-5 ovarian carcinoma (RRID:CVCL_1628), OVCAR-8 ovarian carcinoma (RRID:CVCL_1629), , MCF-7 breast carcinoma (CRL-12584, RRID:CVCL_0031), MDA-MB-231 breast carcinoma (CRL-12532, RRID:CVCL_0062), NCI-H1876 small cell lung carcinoma (CRL-5902, RRID:CVCL_1503), NCI-H510A small cell lung carcinoma (HTB-184, RRID:CVCL_1565), NCI-H1417 (CRL-5869, RRID:CVCL_1469), and NCI-H196 small cell lung carcinoma (CRL-5823, RRID:CVCL_1509). Dr. Peter Houghton (Greehey Children's Cancer Research Institute, University of Texas Health Science Center, San Antonio, TX) provided Rh-18 rhabdomyosarcoma (RRID:CVCL_1659). Pooled donor human umbilical vein endothelial cells (HUVEC, Lonza, cat. CC-2519) and human mesenchymal stem cells (hMSC, Lonza, cat. PT-2501) were purchased from Lonza (Walkersville, MD).
Cell Culture. […]

CCN1C(C(=O)NC23CCC(C(=O)O)(CC2)CC3)C(c2cccc(Cl)c2F)C2(C(=O)Nc3cc(Cl)ccc32)C12CCCCC2 (configuration not stated) + CNC(C)C(=O)NC1CN(S(=O)(=O)c2cccc(S(=O)(=O)N3CCC4CCC(C(=O)NC(c5ccccc5)c5ccccc5)N4C(=O)C(NC(=O)C(C)NC)C3)c2)CCC2CCC(C(=O)NC(c3ccccc3)c3ccccc3)N2C1=O
IC50 (second compound 0.00316 µM): > 3 µM
IC50 (second compound 0.01 µM): > 3 µM
IC50 (second compound 0.0316 µM): > 3 µM
IC50 (second compound 0.1 µM): > 3 µM
IC50 (second compound 0.316 µM): > 3 µM
IC50 (second compound 1 µM): > 3 µM
viability, T/C (second compound 0.00316 µM, first compound 0.00949 µM): 119%
viability, T/C (second compound 0.00316 µM, first compound 0.03 µM): 96.5%
viability, T/C (second compound 0.00316 µM, first compound 0.0949 µM): 104%
viability, T/C (second compound 0.00316 µM, first compound 0.3 µM): 97.9%
viability, T/C (second compound 0.00316 µM, first compound 0.949 µM): 106%
viability, T/C (second compound 0.00316 µM, first compound 3 µM): 110%
viability, T/C (second compound 0.01 µM, first compound 0.00949 µM): 98.4%
viability, T/C (second compound 0.01 µM, first compound 0.03 µM): 91.1%
viability, T/C (second compound 0.01 µM, first compound 0.0949 µM): 95%
viability, T/C (second compound 0.01 µM, first compound 0.3 µM): 84.8%
viability, T/C (second compound 0.01 µM, first compound 0.949 µM): 105%
viability, T/C (second compound 0.01 µM, first compound 3 µM): 107%
viability, T/C (second compound 0.0316 µM, first compound 0.00949 µM): 85.4%
viability, T/C (second compound 0.0316 µM, first compound 0.03 µM): 86.9%
viability, T/C (second compound 0.0316 µM, first compound 0.0949 µM): 92.7%
viability, T/C (second compound 0.0316 µM, first compound 0.3 µM): 102%
viability, T/C (second compound 0.0316 µM, first compound 0.949 µM): 102%
viability, T/C (second compound 0.0316 µM, first compound 3 µM): 118%
viability, T/C (second compound 0.1 µM, first compound 0.00949 µM): 85.3%
viability, T/C (second compound 0.1 µM, first compound 0.03 µM): 78.3%
viability, T/C (second compound 0.1 µM, first compound 0.0949 µM): 99.8%
viability, T/C (second compound 0.1 µM, first compound 0.3 µM): 88.1%
viability, T/C (second compound 0.1 µM, first compound 0.949 µM): 118%
viability, T/C (second compound 0.1 µM, first compound 3 µM): 103%
viability, T/C (second compound 0.316 µM, first compound 0.00949 µM): 98.8%
viability, T/C (second compound 0.316 µM, first compound 0.03 µM): 86.5%
viability, T/C (second compound 0.316 µM, first compound 0.0949 µM): 90.2%
viability, T/C (second compound 0.316 µM, first compound 0.3 µM): 78.3%
viability, T/C (second compound 0.316 µM, first compound 0.949 µM): 90.4%
viability, T/C (second compound 0.316 µM, first compound 3 µM): 97.5%
viability, T/C (second compound 1 µM, first compound 0.00949 µM): 80.5%
viability, T/C (second compound 1 µM, first compound 0.03 µM): 79.2%
viability, T/C (second compound 1 µM, first compound 0.0949 µM): 95.7%
viability, T/C (second compound 1 µM, first compound 0.3 µM): 84.2%
viability, T/C (second compound 1 µM, first compound 0.949 µM): 93.3%
viability, T/C (second compound 1 µM, first compound 3 µM): 112%
